Read-outs that look alike come from different tables or passages of the source.
Experiments:
[1] = target: T1, KMT9 (Homo sapiens, UniProt Q9Y5N5); assay: KMT9 methyltransferase inhibition assay, 3H-SAM scintillation (entries 1-154); assay type: biochemical; conditions: entries 1-154: 3H-SAM assay, 25 nM KMT9, 5 μM ETF1
T1 sequence (Q9Y5N5 1-214): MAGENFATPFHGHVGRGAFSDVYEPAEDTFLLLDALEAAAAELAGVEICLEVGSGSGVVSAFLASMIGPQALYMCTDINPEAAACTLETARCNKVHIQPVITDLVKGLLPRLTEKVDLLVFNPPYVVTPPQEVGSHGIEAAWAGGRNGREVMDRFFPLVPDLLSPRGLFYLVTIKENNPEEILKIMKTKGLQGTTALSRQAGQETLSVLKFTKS
T1 sequence (Q9UI30 1-120 isoform Q9UI30-2 partner): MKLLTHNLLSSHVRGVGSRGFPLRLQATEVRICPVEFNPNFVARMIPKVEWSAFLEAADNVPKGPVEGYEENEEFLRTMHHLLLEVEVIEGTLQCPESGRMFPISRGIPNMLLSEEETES
Experimental: The assay was carried out in 0.5 mL Eppendorf tubes in duplicates. Assay buffer consisted of 50 mM BTP, 1 mM MgCl2, 1 mM DTT and 0.01% Triton-X^100 at a pH of 8.5 (adjusted using 1 M HCl and 1 M NaOH). 20X inhibitor stock (in DMSO), 2X enzyme stock and 4X substrate mix (both in assay buffer) were prepared. The substrate mix consisted of Tritium-labelled S-adenosylmethionine (3H-SAM), S-adenosylmethionine (SAM) and eukaryotic peptide chain release factor subunit1 (Homo sapiens, residues 140-275)(ETF1). Final assay concentrations were set to 25 nM KMT9, 0.3 μM 3H-SAM, 0.7 µM SAM and 5 μM ETF1. […] 5 μL of 4x substrate mix was added to initiate the reaction. The final reaction volume was 20 μL. For the positive control, the compound of formula (I) was replaced by DMSO; for the negative control, the compound of formula (I) was replaced by DMSO and KMT9 was replaced by assay buffer. The reaction mix was incubated in an Eppendorf thermomixer comfort at 30° C. for 2 h, shaking at 300 rpm. The reaction was quenched using 5 μL 50% trichloroacetic acid (TCA) and incubated at 25° C. for 5 minutes. 22 μL of the mixture was transferred into 96-well MultiScreen@HTS FB filter plates (Merck KGaA, Darmstadt, Germany) and washed four times with 10% TCA and two times with 100% ethanol. The plate was dried overnight, the filters were transferred into individual 6 mL Pony Vials (Perkin Elmer Inc, Waltham, MA, USA) and incubated in 3 mL of Ultima Gold scintillation cocktail (Perkin Elmer Inc, Waltham, MA, USA) for 30 minutes. The scintillation signal was measured for 3x 1 min using TriCarb 2910 TR (Perkin Elmer) scintillation counter in 3H CPM mode (LL: 0, UL: 18.6). Inhibition was calculated using the following formula: […]
With xc: signal of compound, Xpos: mean signal of positive control, Xneg: mean signal of negative control. Data fitting was carried out by GraphPad 7.0 using nonlinear fit ([Inhibitor]vs. response-variable slope (four parameters)).
For the results of the methyltransferase inhibition assay shown as “Inhibition” in Table 1, “I” represents an IC50 less than 0.1 μM, “II” represents an IC50 equal or higher than 0.1 μM and less than 1 μM, “III” represents an IC50 equal or higher than 1 µM and less than 10 µM and “IV” represents an IC50 equal or higher than 10 µM

[2] = target: T1, KMT9; assay: KMT9 thermal shift assay (SyproOrange); assay type: binding; conditions: 500 µM compound
Experimental: The assay was carried out in 96-well Hard-Shell PCR plates (Bio-Rad Laboratories Inc.). Assay buffer consisted of 50 mM BTP, 1 mM MgCl2 and 1 mM DTT at a pH of 8.5 (adjusted using 1 M HCl and 1 M NaOH). 20X inhibitor stock (in DMSO), 2X enzyme stock and 4X SyproOrange (SO) stock (both in assay buffer) were prepared. 1 μL of 20X compound, 4 μL of assay buffer, 10 μL of 2X KMT9 and 5 μL of 4X SO were pipetted. For the no-compound control, 20X inhibitor stock was replaced by DMSO. The final volume was 20 μL. The plate was spun down at 700 rpm for 1 min using a Hettich UNIVERSAL 320 centrifuge and incubated at 25° C., shaking at 600 rpm. After incubation, the plate was spun down for 1 min at 700 rpm and measurement was conducted using a CFX96 Touch Real-Time PCR Detection System (Bio-Rad Laboratories Inc.). The plate was equilibrated at 20° C. for 4 min and then heated stepwise at a rate of 1° C. per 15 s until 95° C. After every step, fluorescence was measured in FRET mode. Calculation of melting points was conducted by a Boltzman sigmoidal model using GraphPad Prism 7.0.
For the results of the thermal shift assay shown as “Thermal shift” in Table 1, “++++” represents a ΔTm of greater 20 K, “+++” represents a ΔTm of greater than 15 K and less than or equal to 20 K (15 K<ΔTm≤20 K); “++” represents a ΔTm of greater than 10 K and less than or equal to 15 K (10 K<ΔTm ≤ 15 K); “+” represents a ΔTm of equal to or less than 10 K (ΔTm≤10 K).

[3] = target: T1, KMT9; assay: Microscale thermophoresis (MST) KMT9 binding
Experimental: To determine the binding affinity of the compounds according to the present invention and KMT9, microscale thermophoresis (MST) analysis was performed with a NanoTemper Monolith NT.115 instrument (NanoTemper Technologies GmbH). KMT9 was labelled with a RED-Tris-NTA labelling kit (NanoTemper Technologies GmbH) based on the manufacturer's instructions. Buffer including 25 mM HEPES (pH 7.5), 100 mM NaCl, 1 mM DTT and 0.05% Tween was used for the reaction buffer. Varying concentrations of the tested compounds of formula (I) as indicated in Table 1 were titrated against His-tag labelled KMT9 proteins (20 nM). Samples were loaded into standard Capillaries (NanoTemper Technologies GmbH) and MST measurements were performed using 40% MST power and 100% LED power. For each set of binding experiments, MST measurement was carried out with Binding Affinity module in MO.Control program under Nano-RED Excitation. Datasets were processed with the MO.Affinity Analysis software (NanoTemper Technologies GmbH).
For the results of the microscale thermophoresis (MST) assay shown as “MST” in Table 1, “A” represents a Kd of equal to or less than 10 nM (Kd≤10 nM); “B” represents a Kd of greater than 10 nM and equal to or less than 100 nM (10 nM<Kd<100 nM); “C” represents a Kd of greater than 100 nM and equal to or less than 1000 nM (100 nM<Kd ≤ 1000 nM); “D” represents a Kd of greater than 1000 nM (1000 nM<Kd).

[4] = ΔTm, 2 μM KMT9, 5X SO, read-out: Thermal shift
[5] = microscale thermophoresis, His-tag labelled KMT9 (20 nM), read-out: MST
[6] = 2 μM KMT9, read-out: Thermal shift (ΔTm)

| Structure (SMILES) | IC50 [1] [nM] | ΔTm at 500 µM [2, 4] [°C] | Kd [3, 5] [nM] | ΔTm at 500 µM [2, 6] [°C] | Kd ([3]; His-tag labelled KMT9 20 nM, read-out: MST (Kd)) [nM] |
| --- | --- | --- | --- | --- | --- |
| CNc1ncnc2c1ccn2[C@@H]1C[C@H](CNCCC(=O)NCCc2ccccc2)[C@@H](O)[C@H]1O (racemic) [434 (306), 3-((((1R,2R,3S,4R)-2,3-dihydroxy-4-(4-(methylamino)-7H-pyrrolo[2,3-d]pyrimidin-7-yl)cyclopentyl)methyl)amino)-N-phenethylpropanamide and 3-((((1S,2R,3S,4R)-2,3-dihydroxy-4-(4-(methylamino)-7H-pyrrolo[2,3-d]pyrimidin-7-yl)cyclopentyl)methyl)amino)-N-phenethylpropanamide] | > 10000 | ≤ 10 | > 1000 | – | – |
| CNc1ncnc2c1ccn2[C@@H]1C[C@H](CNCC2CNCCO2)[C@@H](O)[C@H]1O (mixture of isomers) [435 (307), (1R,2S,3R,5R)-3-(4-(methylamino)-7H-pyrrolo[2,3-d]pyrimidin-7-yl)-5-(((morpholin-2-ylmethyl)amino)methyl) cyclopentane-1,2-diol and (1R,2S,3R,5S)-3-(4-(methylamino)-7H-pyrrolo[2,3-d]pyrimidin-7-yl)-5-(((morpholin-2-ylmethyl)amino)methyl) cyclopentane-1,2-diol] | > 10000 | ≤ 10 | > 1000 | – | – |
| CNc1ncnc2c1ccn2[C@@H]1C[C@H](CN2CCC[C@]23CCCNC3)[C@@H](O)[C@H]1O (single isomer, unassigned) [449 (321)] | > 10000 | ≤ 10 | > 1000 | – | – |
| CNc1ncnc2c1ccn2[C@@H]1C[C@H](CN2CCC[C@@]23CCCNC3)[C@@H](O)[C@H]1O (single isomer, unassigned) [450 (322)] | > 10000 | ≤ 10 | > 1000 | – | – |
| CNc1ncnc2c1ccn2[C@@H]1C[C@H](CNCCCNCCc2cccc(Oc3ccccc3)c2)[C@@H](O)[C@H]1O [287 (184)] | 1000 to 10000 | 10 to 15 | 100 to 1000 | – | – |
| CNc1ncnc2c1ccn2[C@@H]1C[C@H](CNCCCNCCc2cccc(N(C)c3ccccc3)c2)[C@@H](O)[C@H]1O [289 (186), (1S,2R,3R,5R)-3-(((3-((3-(methyl(phenyl)amino)phenethyl)amino)propyl)amino)methyl)-5-(4-(methylamino)-7H-pyrrolo[2,3-d]pyrimidin-7-yl) cyclopentane-1,2-diol] | > 10000 | 10 to 15 | > 1000 | – | – |
| CNc1ncnc2c1ccn2[C@@H]1C[C@H](CNCCCNCCc2ccccc2)[C@@H](O)[C@H]1O [291 (188), (1R,2S,3R,5R)-3-(4-(methylamino)-7H-pyrrolo[2,3-a]pyrimidin-7-yl)-5-(((3-(phenethylamino)propyl)amino)methyl) cyclopentane-1,2-diol] | 1000 to 10000 | 10 to 15 | > 1000 | – | – |
| Nc1ncnc2c1c(-c1ccccc1)cn2[C@@H]1C[C@H](CNCCCNCCc2ccc(F)cc2)[C@@H](O)[C@H]1O [340 (244), (1R,2S,3R,5R)-3-(4-amino-5-phenyl-7H-pyrrolo[2,3-d]pyrimidin-7-yl)-5-(((3-((4-fluorophenethyl)amino)propyl)amino)methyl) cyclopentane-1,2-diol] | 100 to 1000 | – | 10 to 100 | – | – |
| Nc1ncnc2c1ncn2[C@@H]1O[C@H](C(=O)NCCCNCCc2ccc3ccccc3c2)[C@@H](O)[C@H]1O [688 (222), (2S,3S,4R,5R)-5-(6-amino-9H-purin-9-yl)-3,4-dihydroxy-N-(3-((2-(naphthalen-2-yl)ethyl)amino)propyl) tetrahydrofuran-2-carboxamide] | > 10000 | – | – | – | – |
| O[C@@H]1[C@H](O)[C@@H]([C@@H]2CCCNC2)C[C@H]1n1cc(-c2nccs2)c2cncnc21 [Compound 401, (1S,2R,3R,5R)-3-((S)-piperidin-3-yl)-5-(5-(thiazol-2-yl)-7//pyrrolo[2,3-a]pyrimidin-7-yl) cyclopentane-1,2-diol] | – | – | – | ≤ 10 | – |
| O[C@@H]1[C@H](O)[C@@H]([C@H]2CCCNC2)C[C@H]1n1cc(-c2nccs2)c2cncnc21 [Compound 402, (1S,2R,3R,5R)-3-((R)-piperidin-3-yl)-5-(5-(thiazol-2-yl)-7H-pyrrolo[2,3-a]pyrimidin-7-yl) cyclopentane-1,2-diol] | – | – | – | ≤ 10 | – |
| O[C@@H]1[C@H](O)[C@@H]([C@H]2CCCNC2)C[C@H]1n1ccc2c(C(F)F)ncnc21 [Compound 403, (1R,2S,3R,5R)-3-(4-(difluoromethyl)-7H-pyrrolo[2,3-d]pyrimidin-7-yl)-5-((R)-piperidin-3-yl) cyclopentane-1,2-diol] | – | – | – | ≤ 10 | – |
| Nc1nc(Cl)nc2c1c(-c1ccn(S(=O)(=O)c3ccccc3)n1)cn2[C@@H]1C[C@H](C2CCN(CC3CC3)CC2)[C@@H](O)[C@H]1O [Compound 520, (1R,2S,3R,5R)-3-{4-Amino-5-[1-(benzenesulfonyl)pyrazol-3-yl]-2-chloropyrrolo[2,3-d]pyrimidin-7-yl}-5-[1-(cyclopropylmethyl)piperidin-4-yl]cyclopentane-1,2-diol] | – | – | – | > 20 | ≤ 10 |
| CNc1ncnc2c1ccn2[C@@H]1C[C@H]([C@@H]2C[C@@H]2CCCNCCc2ccccc2)[C@@H](O)[C@H]1O [Compound 683, (1R,2S,3R,5R)-3-(4-(methylamino)-7H-pyrrolo[2,3-d]pyrimidin-7-yl)-5-((1R,2S)-2-(3-(phenethylamino)propyl)cyclopropyl)cyclopentane-1,2-diol] | – | ≤ 10 | > 1000 | – | – |

Reference: patent publication US20250188110A1, “SPECIFIC SMALL MOLECULE INHIBITORS THAT BLOCK KMT9 METHYLTRANSFERASE ACTIVITY AND FUNCTION” (ALBERT-LUDWIGS-UNIVERSITÄT FREIBURG, priority 2021, published 2025)
